Results as given in article PMC6003237 (Bioorganic & medicinal chemistry, 2017).
pIC50: −log10 of the molar value. Where “and” joins values, the source holds several entries; their conditions need not be identical. Identical values can stand only once. Like-named read-outs stand apart in the source and are kept apart here. *1 amine or outer side, *2 acyl side, *3 side chain or, on linkers, in order; H or OH if unused. Where a SMILES comes first, the peptide text is derived from it. [ ]: non-standard residue; d: D form. The star is where a group is joined. Emetine(N2') = CC[C@H]1CN2CCc3cc(OC)c(OC)cc3[C@@H]2C[C@@H]1C[C@@H]1c2cc(OC)c(OC)cc2CCN1*; PABC = O=C(OCc1ccc(N[*:1])cc1)[*:2]

Tests used:
LNCaP = assay: MTT cytotoxicity in PSA producing LNCaP cells; type: cell-based, human
PC3 = assay: MTT cytotoxicity in non-PSA-producing PC3 cells; type: cell-based, human
[1] = target: Purified native human prostate specific antigen (PSA) (Homo sapiens, UniProt P07288); assay: PSA-mediated hydrolysis of prodrug ex-vivo; type: biochemical
Purified native human prostate specific antigen (PSA), sequence (P07288 25-261): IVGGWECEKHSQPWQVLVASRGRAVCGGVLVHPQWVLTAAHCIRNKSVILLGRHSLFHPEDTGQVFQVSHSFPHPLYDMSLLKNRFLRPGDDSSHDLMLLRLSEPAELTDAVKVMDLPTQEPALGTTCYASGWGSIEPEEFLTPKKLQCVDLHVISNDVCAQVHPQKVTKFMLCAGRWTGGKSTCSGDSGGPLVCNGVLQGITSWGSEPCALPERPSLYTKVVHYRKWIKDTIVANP

[2] = PBS
[3] = human, 200 µM
mice [4] = conditions: for MTD (nmol injected): mice of average body weight 25 g; for dose producing acute toxicity (convulsions and death) / dose producing acute toxicity (convulsions and death), nmol: single IV injection
[5] = Stability / hydrolysis in 10% FBS
[6] = Hydrolysis in LNCaP conditioned media; conditions: serum containing LNCaP conditioned media, 37 °C, 24–72 h
DPPIV = conditions: activation by DPPIV; ref [9]; cited from earlier work
[7] = tested on: different cancer cell lines; conditions: cited from earlier work
[8] = Stability in human plasma; type: in vitro ADME; conditions: 48 h
[9] = tested on: NCI 60 cancer cell screen; conditions: ref not given; cited from earlier work
PC-3 xenografts = conditions: dose of 8 mg/kg, earlier studies, ref not given; cited from earlier work
CWR22Rv1 = assay: MTT cytotoxicity in low PSA-producing CWR22Rv1 cells; type: cell-based, human
mice [10] = conditions: earlier studies of the authors, ref not given; cited from earlier work

With `CC[C@H]1CN2CCc3cc(OC)c(OC)cc3[C@@H]2C[C@@H]1C[C@@H]1c2cc(OC)c(OC)cc2CCN1C(=O)OCc1ccc(NC(=O)[C@H](CC(C)C)NC(=O)[C@@H](N)CO)cc1` [compound 14, 4-((S)-2-((S)-2-Amino-3-hydroxypropanamido)-4-methyl-pentanamido) benzyl (R)-1-(((2R,3R,11bS)-3-ethyl-9,10-dimethoxy-1,3,4,6,7,11b-hexahydro-2H-pyrido[2,1-a]isoquinolin-2-yl)methyl)-6,7-dimethoxy-3,4-dihydroisoquinoline-2(1H)-carboxylate] the “cytotoxicity compared to emetine” value (LNCaP) was “comparable to emetine”, the pIC50 (LNCaP; Homo sapiens, LNCaP, 72 h) was over 7.00 and the “cytotoxicity compared to emetine” value (PC3) was “comparable to emetine”. For the same compound, the pIC50 (PC3; Homo sapiens, PC-3, 72 h) was over 7.00, the “% Emetine after 72 h incubation” value ([1]; Purified PSA, 37 °C, 72 h) was 0.0% and the “hydrolysis / conversion to emetine on incubation with purified PSA (LCMS)” value ([1]; purified PSA, 37 °C, 24–72 h) was “not observed”. The “hydrolysis to emetine or any product (LCMS)” value ([2]; 37 °C, 24–72 h) was “did not result in its hydrolysis to emetine or any product of hydrolysis”, the “% Emetine after 72 h incubation” value ([2]; 37 °C, 72 h) was 0.0% and the “% Ser-Leu-PABC-Emetine, 14 after 72 h incubation” value ([2]; 37 °C, 72 h) was 100%. For the same compound, the “% Ser-Leu-PABC-Emetine, 14 after 72 h incubation” value [3] was 100%, the “Effects/observations at higher doses” value (mice [4]; IV injection, mice) was “Toxic effect was observed at higher doses” and the “MTD (nmol injected)” value (mice [4]; IV injection) was 1541 nmol. For the same compound, the “hydrolysis to emetine or any product (LCMS)” value ([5]; 10% FBS containing media, 37 °C, 24–72 h) was “did not result in its hydrolysis to emetine or any product of hydrolysis” and the “hydrolysis to emetine or any product (LCMS)” value [6] was “did not result in its hydrolysis to emetine or any product of hydrolysis”.

In the case of `CC[C@H]1CN2CCc3cc(OC)c(OC)cc3[C@@H]2C[C@@H]1C[C@@H]1c2cc(OC)c(OC)cc2CCN1C(=O)OCc1ccc(NC(=O)[C@@H]2CCCN2C(=O)[C@H](C)N)cc1` [compound 10, 4-((S)-1-(L-Alanyl)pyrrolidine-2-carboxamido)benzyl (R)-1-(((2R,3R,11bS)-3-ethyl-9,10-dimethoxy-1,3,4,6,7,11b-hexahydro-2H-pyrido[2,1-a]isoquinolin-2-yl)methyl)-6,7-dimethoxy-3,4-dihydroisoquinoline-2(1H)-carboxylate], the “Effects/observations at higher doses” value (mice [4]; IV injection, mice) is listed as “Convulsion and death at higher doses”, the “MTD (nmol injected)” value (mice [4]; IV injection) is listed as 1003 nmol and 1002 nmol and the “time for efficient quantitative release of emetine” value (DPPIV) is listed as at most 24 h. For the same compound, the “in vitro cytotoxicity compared to emetine” value ([7]; cancer cell lines, ref [6]–[9]) was “equipotency with emetine”.

In the case of `CC[C@H]1CN2CCc3cc(OC)c(OC)cc3[C@@H]2C[C@@H]1C[C@@H]1c2cc(OC)c(OC)cc2CCN1C(=O)OCc1ccc(NC(=O)[C@@H]2CCCN2C(=O)[C@H](C)NC(=O)[C@@H]2CCCN2C(=O)[C@H](C)NC(C)=O)cc1` [compound 24] (Ac-APAP[PABC]-{Emetine(N2')}), the “Effects/observations at higher doses” value (mice [4]; IV injection, mice) was “Intermittent convulsion started 1 min post injection of 33 mg/kg dose (818 nmol). Death occurred after about 8 min”, the “dose producing acute toxicity (convulsions and death)” value (mice [4]; mice) was 33 mg/kg and the “dose producing acute toxicity (convulsions and death), nmol” value (“dose producing acute toxicity … nmol” for short) (mice [4]; mice) was 818 nmol.

With `CC[C@H]1CN2CCc3cc(OC)c(OC)cc3[C@@H]2C[C@@H]1C[C@@H]1c2cc(OC)c(OC)cc2CCN1C(=O)OCc1ccc([N+](=O)[O-])cc1` [compound 25] the “Effects/observations at higher doses” value (mice [4]; IV injection, mice) was “No remarkable behavior, no sign of toxicity. Mice remained alive”, the “dose without any observable sign of toxicity” value (mice [4]; IV injection, mice) was 64 mg/kg and the “dose without any observable sign of toxicity, nmol” value (mice [4]; IV injection, mice) was 2425 nmol. The “MTD (nmol injected)” value (mice [4]; IV injection) was over 2425 nmol and the “fold less cytotoxic than emetine in vitro” value ([7]; different cancer cell lines, ref [6]–[9]) was “about 200 fold”.

In the case of `CC[C@H]1CN2CCc3cc(OC)c(OC)cc3[C@@H]2C[C@@H]1C[C@@H]1c2cc(OC)c(OC)cc2CCN1C(=O)/C=C(/CC(=O)O)C(=O)O` [compound 20], the “Effects/observations at higher doses” value (mice [4]; IV injection, mice) is given as “No remarkable behavior even at higher doses. Mice remained alive”, the “MTD (nmol injected)” value (mice [4]; IV injection) is given as over 3926 nmol and the “in vitro cytotoxicity compared to emetine” value [7] is given as “much less toxic in vitro compared to emetine”.

For `CC[C@H]1CN2CCc3cc(OC)c(OC)cc3[C@@H]2C[C@@H]1C[C@@H]1c2cc(OC)c(OC)cc2CCN1C(=O)OCc1ccc(NC(=O)[C@H](CC(C)C)NC(=O)[C@H](CO)NC(=O)[C@H](CCC(N)=O)NC(=O)[C@H](CC(C)C)NC(=O)[C@H](CCCCN)NC(=O)[C@H](CO)NC(=O)[C@H](CO)NC(=O)[C@H](Cc2cnc[nH]2)NC(C)=O)cc1` [compound 16] (Ac-HSSKLQSL[PABC]-{Emetine(N2')}), the “times less cytotoxic in non-PSA producing cells than in PSA producing cells” value (PC3; PC3 vs CWR22Rv1 and LNCaP, from IC50) was 7–9 times, the “stability in human plasma (detection of 14 or emetine)” value [8] was “Neither precursor 14 nor emetine was detected” and the “stability (cleavage, hydrolysis/decomposition)” value ([2]; five-day incubation at 37 °C) was “no sign of cleavage or any form of hydrolysis/decomposition was detectable”. For the same compound, the “observation at the MTD” value (mice [4]; 25 mg/kg (402 nmol) IV) was “acute distress followed by recovery within an hour of injection”, the “Effects/observations at higher doses” value (mice [4]; IV injection, mice) was “Convulsion started about 1 min post injection at higher doses” and the “MTD (nmol injected)” value (mice [4]; IV injection) was 402 nmol. For the same compound, the “dose producing acute toxicity (convulsions and death)” value (mice [4]; mice) was 50 mg/kg, the “dose producing acute toxicity … nmol” value (mice [4]; mice) was 804 nmol and the “stability (cleavage, hydrolysis/decomposition)” value ([5]; 10% FBS, five-day incubation at 37 °C) was “no sign of cleavage or any form of hydrolysis/decomposition was detectable”.

For `CC[C@H]1CN2CCc3cc(OC)c(OC)cc3[C@@H]2C[C@@H]1C[C@@H]1c2cc(OC)c(OC)cc2CCN1C(=O)CCC(=O)O` [compound 22], the “Effects/observations at higher doses” value (mice [4]; IV injection, mice) is given as “No remarkable behavior. Mice remained alive”, the “MTD (nmol injected)” value (mice [4]; IV injection) is given as over 4305 nmol and the “in vitro cytotoxicity compared to emetine” value [7] is given as “much less toxic in vitro compared to emetine”.

With `CC[C@H]1CN2CCc3cc(OC)c(OC)cc3[C@@H]2C[C@@H]1C[C@H]1NCCc2cc(OC)c(OC)cc21` [Emetine, emetine, reference compound] the “Effects/observations at higher doses” value (mice [4]; IV injection, mice) was “Convulsion and death within 1 min of injection at 16 mg/kg”, the “MTD (nmol injected)” value (mice [4]; IV injection) was 416 nmol and the “dose producing acute toxicity (convulsions and death)” value (mice [4]; mice) was 16 mg/kg. The GI50 [9] was 27 nM and the therapeutic efficacy (PC-3 xenografts) was “no therapeutic efficacy”.

With `CC[C@@H]1C[C@@H](C[C@@H]2c3cc(OC)c(OC)cc3CCN2C(=O)OCc2ccc(NC(=O)[C@H](CC(C)C)NC(=O)[C@H](CO)NC(C)=O)cc2)[C@H]2c3cc(OC)c(OC)cc3CCN2C1` [compound 15, 4-((S)-2-((S)-2-Acetamido-3-hydroxypropanamido)-4-methyl-pentanamido) benzyl (R)-1-(((2R,3R,11bS)-3-ethyl-9,10-dimethoxy-1,3,4,6,7,11b-hexahydro-2H-pyrido[2,1-a]isoquinolin-2-yl)methyl)-6,7-dimethoxy-3,4-dihydroisoquinoline-2(1H)-carboxylate] the “concentration at which significant cytotoxicity was demonstrated” value (LNCaP; LNCaP (Fig. 3A)) was 10,000 nM and the “concentration at which significant cytotoxicity was demonstrated” value (PC3; PC3 (Fig. 3B)) was 10,000 nM.

For `CC[C@H]1CN2CCc3cc(OC)c(OC)cc3[C@@H]2C[C@@H]1C[C@@H]1c2cc(OC)c(OC)cc2CCN1C(=O)OCc1ccc(NC(=O)[C@H](CC(C)C)NC(=O)[C@H](CO)NC(=O)[C@H](CCC(N)=O)NC(=O)[C@H](CC(C)C)NC(=O)[C@H](CCCCN)NC(=O)[C@H](CO)NC(=O)[C@H](CO)NC(=O)[C@H](Cc2c[nH]cn2)NC(C)=O)cc1` [compound 16] (Ac-HSSKLQSL[PABC]-{Emetine(N2')}), the “IC50 fold higher than the IC50 of emetine” value (LNCaP; LNCaP) was “about 2 fold”, the “IC50 fold higher than the IC50 of emetine” value (CWR22Rv1) was “about 2 fold” and the “% of 14 observed after incubation with PSA (LCMS)” value (shortened to “% of 14 observed after incubation”) ([1]; purified PSA, 2 h) was 20%. For the same compound, the “% of 14 observed after incubation” value ([1]; purified PSA, 6 h) was 50% and the “% of 14 observed after incubation” value ([1]; purified PSA, 20 h) was 98%.

In the case of `CC[C@H]1CN2CCc3cc(OC)c(OC)cc3[C@@H]2C[C@@H]1C[C@@H]1c2cc(OC)c(OC)cc2CCN1C(=O)/C=C(/C)C(=O)O` [compound 19], the “Effects/observations at higher doses” value (mice [4]; IV injection, mice) is listed as “No remarkable behavior even at higher doses. Mice remained alive”, the “MTD (nmol injected)” value (mice [4]; IV injection) is listed as over 4218 nmol and the “in vitro cytotoxicity compared to emetine” value [7] is listed as “much less toxic in vitro compared to emetine”.

For `CC[C@H]1CN2CCc3cc(OC)c(OC)cc3[C@@H]2C[C@@H]1C[C@@H]1c2cc(OC)c(OC)cc2CCN1C(=O)/C(C)=C(/C)C(=O)O` [compound 21], the “Effects/observations at higher doses” value (mice [4]; IV injection, mice) is given as 32 mg/kg (1318 nmol) is toxic like emetine and the lethal dose (mice [10]) is given as 32 mg/kg.

In the case of `CC[C@H]1CN2CCc3cc(OC)c(OC)cc3[C@@H]2C[C@@H]1C[C@@H]1c2cc(OC)c(OC)cc2CCN1C(=S)[S-].[Na+]` [compound 18], the “Effects/observations at higher doses” value (mice [4]; IV injection, mice) is listed as “No remarkable behavior even at higher doses. Mice remained alive”, the “MTD (nmol injected)” value (mice [4]; IV injection) is listed as over 4320 nmol and the “in vitro cytotoxicity compared to emetine” value ([7]; cancer cell lines, ref [6]–[9]) is listed as “much less toxic in vitro compared to emetine”.

In the case of `CC[C@H]1CN2CCc3cc(OC)c(OC)cc3[C@@H]2C[C@@H]1C[C@@H]1c2cc(OC)c(OC)cc2CCN1C(=S)Nc1ccccc1` [compound 26], the “dose without any observable sign of toxicity” value (mice [4]; male, Balb/c, mouse, in vivo, iv) is given as “up to 100 mg/kg” and the “in vitro cytotoxicity compared to emetine” value ([7]; cancer cell lines, ref [6]–[9]) is given as “less cytotoxic in vitro than emetine”.

With `CC[C@H]1CN2CCc3cc(OC)c(OC)cc3[C@@H]2C[C@@H]1C[C@@H]1c2cc(OC)c(OC)cc2CCN1C(=O)[C@@H]1CCCN1C(=O)[C@H](C)N` [compound 23] the “Effects/observations at higher doses” value (mice [4]; IV injection, mice) was “Convulsion and death within 1 min of injection at 16 mg/kg (617 nmol)”, the “dose producing acute toxicity (convulsions and death)” value (mice [4]; mice) was 16 mg/kg and the “dose producing acute toxicity … nmol” value (mice [4]; mice) was 617 nmol. For the same compound, the “in vitro cytotoxicity compared to 10” value ([7]; in vitro cytotoxicity assays, ref [9]) was “significantly less active”.
